Patent US9686986B2, “Herbicidal compounds” (SYNGENTA LIMITED, priority 2011, dated 2017)

Key:
Assay in all cases: Glasshouse herbicide test, pre- and post-emergence, percentage damage
Assay type in all cases: in vivo
[1] = system: Amaranthus retoflexus (AMARE); conditions: 1000 g/h, evaluated after 13 days; for percentage damage caused to the plant, AMARE, POST Application: post-emergence; for percentage damage caused to the plant, AMARE, PRE Application: pre-emergence
Protocol: (§1) Seeds of a variety of test species are sown in standard soil in pots (Alopecurus myosuroides (ALOMY), Setaria faberi (SETFA), Stellaria media (STEME), Echinochloa crus-galli (ECHCG), Solanum nigrum (SOLNI), Amaranthus retoflexus (AMARE), Ipomoea hederacea (IPOHE), Lolium perenne (LOLPE). After cultivation for one day (pre-emergence) or after 8 days cultivation (post-emergence) under controlled conditions in a glasshouse (at 24/16° C., day/night; 14 hours light; 65% humidity), the plants are sprayed with an aqueous spray solution derived from the formulation of the technical active ingredient in acetone/water (50:50) solution containing 0.5% Tween 20 (polyoxyethelyene sorbitan monolaurate, CAS RN 9005-64-5). Compounds ae applied at 1000 g/h. The test plants are then grown in a glasshouse under controlled conditions in a glasshouse (at 24/16° C., day/night; 14 hours light; 65% humidity) and watered twice daily. After 13 days for pre and post-emergence, the test is evaluated for the percentage damage caused to the plant. The biological activities are shown in the following table on a five point scale (5=80-100%; 4=60-79%; 3=40-59%; 2=20-39%; 1=0-19%).

DIGSA = conditions: 1000 g/h, evaluated after 13 days, five point scale; for percentage damage caused to the plant, DIGSA, POST Application: post-emergence; for percentage damage caused to the plant, DIGSA, PRE Application: pre-emergence
Protocol: [The source words this procedure for another organism and reports this organism under the same test.] as §1

Lolium perenne (LOLPE) = conditions: 1000 g/h, evaluated after 13 days, five point scale; for percentage damage caused to the plant, LOLPE, POST Application: post-emergence; for percentage damage caused to the plant, LOLPE, PRE Application: pre-emergence
Protocol: as §1

Stellaria media (STEME) = conditions: 1000 g/h, evaluated after 13 days, five point scale; for percentage damage caused to the plant, STEME, POST Application: post-emergence; for percentage damage caused to the plant, STEME, PRE Application: pre-emergence
Protocol: as §1

[2] = system: Alopecurus myosuroides (ALOMY); conditions: 1000 g/h, evaluated after 13 days, five point scale; for percentage damage caused to the plant, ALOMY, POST Application: post-emergence; for percentage damage caused to the plant, ALOMY, PRE Application: pre-emergence
Protocol: as §1

[3] = system: Echinochloa crus-galli (ECHCG); conditions: 1000 g/h, evaluated after 13 days, five point scale; for percentage damage caused to the plant, ECHCG, POST Application: post-emergence; for percentage damage caused to the plant, ECHCG, PRE Application: pre-emergence
Protocol: as §1

[4] = system: Ipomoea hederacea (IPOHE); conditions: 1000 g/h, evaluated after 13 days, five point scale; for percentage damage caused to the plant, IPOHE, POST Application: post-emergence; for percentage damage caused to the plant, IPOHE, PRE Application: pre-emergence
Protocol: as §1

Setaria faberi (SETFA) = conditions: 1000 g/h, evaluated after 13 days, five point scale; for percentage damage caused to the plant, SETFA, POST Application: post-emergence; for percentage damage caused to the plant, SETFA, PRE Application: pre-emergence
Protocol: as §1

Solanum nigrum (SOLNI) = conditions: 1000 g/h, evaluated after 13 days, five point scale; for percentage damage caused to the plant, SOLNI, POST Application: post-emergence; for percentage damage caused to the plant, SOLNI, PRE Application: pre-emergence
Protocol: as §1

| Structure (SMILES) | percentage damage caused to the plant, AMARE, POST Application ([1]; five point scale (Table B2)) | percentage damage caused to the plant, AMARE, PRE Application ([1]; five point scale (Table B2)) | percentage damage caused to the plant, DIGSA, POST Application (DIGSA) | percentage damage caused to the plant, DIGSA, PRE Application (DIGSA) | percentage damage caused to the plant, LOLPE, POST Application (Lolium perenne (LOLPE)) | percentage damage caused to the plant, LOLPE, PRE Application (Lolium perenne (LOLPE)) | percentage damage caused to the plant, STEME, POST Application (Stellaria media (STEME)) | percentage damage caused to the plant, STEME, PRE Application (Stellaria media (STEME)) | percentage damage caused to the plant, ALOMY, POST Application [2] | percentage damage caused to the plant, ALOMY, PRE Application [2] | percentage damage caused to the plant, AMARE, POST Application ([1]; five point scale (Table B1)) | percentage damage caused to the plant, AMARE, PRE Application ([1]; five point scale (Table B1)) | percentage damage caused to the plant, ECHCG, POST Application [3] | percentage damage caused to the plant, ECHCG, PRE Application [3] | percentage damage caused to the plant, IPOHE, POST Application [4] | percentage damage caused to the plant, IPOHE, PRE Application [4] | percentage damage caused to the plant, SETFA, POST Application (Setaria faberi (SETFA)) | percentage damage caused to the plant, SETFA, PRE Application (Setaria faberi (SETFA)) | percentage damage caused to the plant, SOLNI, POST Application (Solanum nigrum (SOLNI)) | percentage damage caused to the plant, SOLNI, PRE Application (Solanum nigrum (SOLNI)) |
| --- | --- | --- | --- | --- | --- | --- | --- | --- | --- | --- | --- | --- | --- | --- | --- | --- | --- | --- | --- | --- |
| CS(=O)(=O)c1ccc(C(=O)Nc2nnn[nH]2)c(Cl)c1COCC(F)(F)F [Compound 1.002] | 5 (5=80-100%) | 5 (5=80-100%) | 1 (1=0-19%) | 1 (1=0-19%) | 1 (1=0-19%) | 1 (1=0-19%) | 2 (2=20-39%) | 1 (1=0-19%) | – | – | – | – | – | – | – | – | – | – | – | – |
| Cc1nc(C(C)F)ccc1C(=O)Nc1nnnn1C (stereo not shown) [Compound 1.006] | 5 (5=80-100%) | 5 (5=80-100%) | 5 (5=80-100%) | 4 (4=60-79%) | 5 (5=80-100%) | 4 (4=60-79%) | 5 (5=80-100%) | 4 (4=60-79%) | – | – | – | – | – | – | – | – | – | – | – | – |
| COCc1nc(C(C)F)ccc1C(=O)Nc1nnnn1C (stereo not shown) [Compound 1.007] | 5 (5=80-100%) | 5 (5=80-100%) | 5 (5=80-100%) | 3 (3=40-59%) | 2 (2=20-39%) | 1 (1=0-19%) | 5 (5=80-100%) | 4 (4=60-79%) | – | – | – | – | – | – | – | – | – | – | – | – |
| Cc1ccc([N+](=O)[O-])c(C(=O)Nc2nnnn2C)c1 [Compound 1.013] | – | – | – | – | – | – | – | – | 2 (2=20-39%) | 2 (2=20-39%) | 4 (4=60-79%) | 5 (5=80-100%) | 1 (1=0-19%) | 1 (1=0-19%) | 5 (5=80-100%) | 4 (4=60-79%) | 1 (1=0-19%) | 2 (2=20-39%) | 5 (5=80-100%) | 5 (5=80-100%) |
| Cc1ccc(C(F)(F)F)c(C(=O)Nc2nnnn2C)c1 [Compound 1.014] | – | – | – | – | – | – | – | – | 3 (3=40-59%) | 4 (4=60-79%) | 5 (5=80-100%) | 5 (5=80-100%) | 3 (3=40-59%) | 3 (3=40-59%) | 5 (5=80-100%) | 4 (4=60-79%) | 1 (1=0-19%) | 1 (1=0-19%) | 5 (5=80-100%) | 5 (5=80-100%) |
| Cn1nnnc1NC(=O)c1ccccc1Cl [Compound 1.015] | 4 (4=60-79%) | 5 (5=80-100%) | 1 (1=0-19%) | 1 (1=0-19%) | 4 (4=60-79%) | 3 (3=40-59%) | 4 (4=60-79%) | 3 (3=40-59%) | – | – | – | – | – | – | – | – | – | – | – | – |
| CCCn1nnnc1NC(=O)c1cccc(Cl)c1Cl [Compound 1.016] | 3 (3=40-59%) | 4 (4=60-79%) | 1 (1=0-19%) | 1 (1=0-19%) | 1 (1=0-19%) | 1 (1=0-19%) | 1 (1=0-19%) | 2 (2=20-39%) | – | – | – | – | – | – | – | – | – | – | – | – |
| COc1ccc2cc(C(=O)Nc3nnn[nH]3)c(C(F)(F)F)nc2n1 [Compound 2.001] | 3 (3=40-59%) | 1 (1=0-19%) | 1 (1=0-19%) | 1 (1=0-19%) | 1 (1=0-19%) | 1 (1=0-19%) | 3 (3=40-59%) | 1 (1=0-19%) | – | – | – | – | – | – | – | – | – | – | – | – |
| Cc1nc2nc(C(F)(F)F)c(C(=O)Nc3nnnn3C)cc2cc1F [Compound 2.002] | 5 (5=80-100%) | 5 (5=80-100%) | 4 (4=60-79%) | 3 (3=40-59%) | 2 (2=20-39%) | 2 (2=20-39%) | 5 (5=80-100%) | 3 (3=40-59%) | – | – | – | – | – | – | – | – | – | – | – | – |
| COc1cc2cc(C(=O)Nc3nnnn3C)c(C(F)(F)F)nc2nc1C [Compound 2.003] | 5 (5=80-100%) | 5 (5=80-100%) | 4 (4=60-79%) | 1 (1=0-19%) | 2 (2=20-39%) | 1 (1=0-19%) | 5 (5=80-100%) | 1 (1=0-19%) | – | – | – | – | – | – | – | – | – | – | – | – |
